Entries after “also recorded” stand apart in the source; their conditions may differ.
Assays:
ERK1/2 = ERK1/2 phosphorylation in differentiated 3T3-L1 adipocytes (Western blotting); assay type: cell-based; settings: for basal level of phosphorylation of ERK1/2: inhibitor 1 μM alone, absence of ET-1
Protocol: (§1) Referring to FIGS. 2A, 2B, 2C, 2D, and 2E which are presented to detect the time-dependent effect of ET-1 on ET-1 signaling molecules, including ERK1 /2, JNKs, p38, […] or STAT3 proteins, the differentiated 3T3-L1 adipocytes are treated with or without 100 nM ET-1 at different time points, such as 2, 5, 15, 30, 120, and 240 minutes. After ET-1 incubation, the total protein amounts and the phosphorylation levels of each ET-1 signaling molecule are determined by Western blotting analysis.
(§2) Referring to FIGS. 3A, 3B, and 3C which are presented to further study the endothelin receptor-dependent of ET-1 on the phosphorylation of downstream signaling molecules and on resistin mRNA expression, the differentiated 3T3-L1 adipocytes are pretreated with or without either 1 μM BQ610 (an ETAR inhibitor) or 1 μM BQ788 (an endothelin type B receptor (ETBR) inhibitor) for 1 hour, and then incubated with 100 nM ET-1. After different time points of ET-1 treatment, ET-1 signaling molecules, such as ERK1/2, JNKs, P38, AKT, and STAT3 proteins, and resistin mRNA levels are determined by Western blotting analysis and PCR analysis, respectively. FIG. 3A, 3B, and 3C are presented with or without 5, 15, and 120 minutes of 100 nM ET-1 treatments, respectively.
(§3) Referring to FIGS. 4A, 4B, 4C, 4D, and 4E which are presented to study the effect of the inhibitors of ET-1 signaling molecules, the differentiated 3T3-L1 adipocytes are pretreated with or without the specific inhibitors of ERK1/2, JNK, AKT, STAT3, or p38 for 30 minutes and then incubated with 100 nM ET-1. These inhibitors comprise 1,4-diamino-2,3-dicyano-1,4-bis [2-aminophenylthio]butadiene (U0126, 25 μM; an ERK1/2 inhibitor), 2-(2-Amino-3-methoxyphenyl)-4H-1-benzopyran-4-one (PD98059, 50 μM; an ERK1/2 inhibitor), anthrapyrazolone (SP600125, 20 μM; a JNK inhibitor), SB203580 (20 μM; a p38 inhibitor), 2-(4-morpholinyl)-8-phenyl-4H-1-benzopyran-4-one (LY294002, 50 μM; a PI3K/AKT inhibitor), wortmannin (0.2 μM; a PI3K/AKT inhibitor), and tyrphostin (AG490, 20 μM; a STAT3 inhibitor). After 5, 15 and 120 minutes of 100-nM ET-1 treatment, the total amounts and the phosphorylation level of the above ET-1 signaling molecules corresponding to the ET-1 stimulated increases in resistin mRNA level are determined by Western blotting analysis.

AKT = AKT phosphorylation in differentiated 3T3-L1 adipocytes (Western blotting); assay type: cell-based; settings: for basal level of phosphorylation of AKT: inhibitor 1 μM alone, absence of ET-1
Protocol: as §1, §2, §3

JNKs = JNKs phosphorylation in differentiated 3T3-L1 adipocytes (Western blotting); assay type: cell-based; settings: for basal level of phosphorylation of JNKs: inhibitor 1 μM alone, absence of ET-1; for ET-1-stimulated phosphorylation of JNKs: inhibitor 1 μM pretreated 1 hour, then 100 nM ET-1 for 5 or 15 minutes
Protocol: as §1, §2, §3

p38 = p38 phosphorylation in differentiated 3T3-L1 adipocytes (Western blotting); assay type: cell-based
Protocol: as §1
as §2, with “treatments, respectively. […]” for “treatments, respectively.”

resistin protein = resistin protein level in differentiated 3T3-L1 adipocytes (Western blotting); assay type: cell-based
Protocol: Referring to FIG. 4F which detects the concentration-dependent effect of ET-1 on resistin protein level, the differentiated 3T3-L1 adipocytes are treated with different concentrations of ET-1, such as 0, 10, 50, and 100 nM. After ET-1 incubation, resistin protein levels are determined by Western blotting analysis. Levels of resistin protein are increased by about 120%, 130%, and 140% after 10, 50 and 100 nM ET-1 are respectively added.

STAT3 = STAT3 phosphorylation in differentiated 3T3-L1 adipocytes (Western blotting); assay type: cell-based; settings: for basal level of phosphorylation of STAT3: inhibitor 1 μM alone, absence of ET-1
Protocol: as §1, §2, §3

resistin mRNA = resistin mRNA level in differentiated 3T3-L1 adipocytes (RT-PCR, real time-PCR); assay type: cell-based, mouse; settings: for resistin mRNA level: pretreatment with inhibitor 1 μM alone, no ET-1
Protocol: Referring to FIGS. 1A and 1B which are presented to detect the time-dependent effect of ET-1 on resistin mRNA level, the differentiated 3T3-L1 adipocytes are treated with 100 nM ET-1 at different time periods, including 0, 0.25, 0.5, 1, 2, 4, 6, 8, 12, and 24 hours, After the treatment, resistin mRNA is analyzed by the respective method of reverse transcription-polymerase chain reaction (RT-PCR) (FIG. 1A) and real time-PCR. The forward and reverse primers are [NT] and [NT] for mouse GAP DH and [NT] and [NT] for mouse resistin, respectively. […] The duration of ET-1 incubation that causes the maximum effect on resistin mRNA levels is 2 hours. Referring to FIGS. 1C and 1D which are presented to detect the concentration-dependent effect of ET-1 on resistin mRNA level, the differentiated 3T3-L1 adipocytes are treated with different concentrations of ET-1, such as 0, 10, 50, and 100 nM. After 2 hours of ET-1 incubation, resistin mRNA levels are determined by RT-PCR (FIG. 1C) and by real time-PCR (FIG. 1D). Levels of resistin mRNA are increased by 50%, 100%, and 200% after 10, 50 and 100 nM ET-1 are respectively added. According to the results, 100 nM ET-1 is used in the following embodiments of the present invention for treatment of the differentiated 3T3-L1 adipocytes. […] After different time points of ET-1 treatment, ET-1 signaling molecules, such as ERK1/2, JNKs, P38, AKT, and STAT3 proteins, and resistin mRNA levels are determined by Western blotting analysis and PCR analysis, respectively.

[1] = inhibitor 50 μM pretreated 30 minutes, then 100 nM ET-1
[2] = 100 nM ET-1, time points 2-240 minutes
[3] = 100 nM ET-1 alone for 5 minutes or 15 minutes
[4] = inhibitor 20 μM pretreated 30 minutes, then 100 nM ET-1
[5] = inhibitor 1 μM, in the presence and absence of ET-1
[6] = inhibitor 1 μM pretreated 1 hour, then 100 nM ET-1 for 5 or 15 minutes

## N#CC(=C(N)Sc1ccccc1N)C(C#N)=C(N)Sc1ccccc1N [U0126, 1,4-diamino-2,3-dicyano-1,4-bis [2-aminophenylthio]butadiene]
ERK1/2; inhibitor 25 μM pretreated 30 minutes, then 100 nM ET-1
  ET-1-stimulated phosphorylation of ERK1/2: inhibited

## COc1cccc(-c2cc(=O)c3ccccc3o2)c1N [PD98059, 2-(2-Amino-3-methoxyphenyl)-4H-1-benzopyran-4-one]
ERK1/2; [1]
  ET-1-stimulated phosphorylation of ERK1/2: inhibited

## O=c1cc(N2CCOCC2)oc2c(-c3ccccc3)cccc12 [LY294002, 2-(4-morpholinyl)-8-phenyl-4H-1-benzopyran-4-one]
AKT; [1]
  ET-1-stimulated phosphorylation of AKT: inhibited

## ET-1: endothelin-1, one of the strongest vasoconstrictors; stimulus used on 3T3-L1 adipocytes
JNKs; [2]
  time of maximum phosphorylation of JNKs: 15 min
JNKs; [3]
  phosphorylation of JNKs: increased phosphorylation
p38; 100 nM ET-1
  phosphorylation of p38 on ET-1 stimulation: not altered; also recorded: not stimulated
Resistin protein; 10 nM ET-1
  increase of resistin protein levels: about 120%
Resistin protein; 50 nM ET-1
  increase of resistin protein levels: ~130%
Resistin protein; 100 nM ET-1
  increase of resistin protein levels: ~140%
STAT3; [3]
  phosphorylation of STAT3: increased phosphorylation
ERK1/2; [2]
  time of maximum phosphorylation of ERK1/2: 2 min
ERK1/2; [3]
  phosphorylation of ERK1/2: increased phosphorylation
Resistin mRNA; 10 nM ET-1, 2 hours
  increase of resistin mRNA levels: 50%
Resistin mRNA; 50 nM ET-1, 2 hours
  increase of resistin mRNA levels: 100%
Resistin mRNA; 100 nM ET-1, 0.25-12 hours after treatment, differentiated 3T3-L1 adipocytes
  increase of resistin mRNA levels: 100-250%
Resistin mRNA; 100 nM ET-1, 2 hours
  increase of resistin mRNA levels: 200%
Resistin mRNA; 100 nM ET-1, time course 0-24 hours
  duration of ET-1 incubation that causes the maximum effect on resistin mRNA levels: 2 h
AKT; [3]
  phosphorylation of AKT: increased phosphorylation

## tyrphostin [AG490]
STAT3; [4]
  ET-1-stimulated phosphorylation of STAT3: inhibited

## C[S+]([O-])c1ccc(-c2nc(-c3ccncc3)c(-c3ccc(F)cc3)[nH]2)cc1 (stereo not shown) [SB203580]
p38; [4]
  phosphorylation of p38: not stimulated by ET-1 or inhibited

## CCCC[C@@H](NC(=O)[C@@H](Cc1cn(C(=O)OC)c2ccccc12)NC(=O)[C@H](CC(C)(C)C)NC(=O)N1[C@H](C)CCC[C@@H]1C)C(=O)O [BQ788]
JNKs
  basal level of phosphorylation of JNKs: does not alter
  ET-1-stimulated phosphorylation of JNKs: does not alter
JNKs; [5]
  total amounts of JNKs protein: does not alter
STAT3
  basal level of phosphorylation of STAT3: does not alter
STAT3; [6]
  ET-1-stimulated phosphorylation of STAT3: does not alter
STAT3; [5]
  total amounts of STAT3 protein: does not alter
ERK1/2
  basal level of phosphorylation of ERK1/2: does not alter
ERK1/2; [6]
  ET-1-stimulated phosphorylation of ERK1/2: does not alter
ERK1/2; [5]
  total amounts of ERK1/2 protein: does not alter
Resistin mRNA
  resistin mRNA level: does not alter
AKT
  basal level of phosphorylation of AKT: does not alter
AKT; [6]
  ET-1-stimulated phosphorylation of AKT: does not alter
AKT; [5]
  total amounts of AKT protein: does not alter

## CC(C)C[C@H](NC(=O)N1CCCCCC1)C(=O)N[C@H](Cc1cn(C=O)c2ccccc12)C(=O)N[C@H](Cc1c[nH]c2ccccc12)C(=O)O [BQ610]
JNKs
  basal level of phosphorylation of JNKs: does not alter
  ET-1-stimulated phosphorylation of JNKs: inhibits
STAT3
  basal level of phosphorylation of STAT3: does not alter
STAT3; [6]
  ET-1-stimulated phosphorylation of STAT3: inhibits
ERK1/2
  basal level of phosphorylation of ERK1/2: does not alter
ERK1/2; [6]
  ET-1-stimulated phosphorylation of ERK1/2: inhibits
Resistin mRNA; inhibitor 1 μM pretreated 1 hour, then 100 nM ET-1 for 120 minutes
  ET-1-stimulated resistin mRNA expression: suppresses
Resistin mRNA
  resistin mRNA level: does not alter
AKT
  basal level of phosphorylation of AKT: does not alter
AKT; [6]
  ET-1-stimulated phosphorylation of AKT: inhibits

Reference: patent US20150045358A1, “PHARMACEUTICAL COMPOSITION FOR TREATING DISORDERS ASSOCIATED WITH INSULIN RESISTANCE” (National Central University, priority 2012, published 2015)
